From patent publication US9744150B2, “Suspension containing micronized benzoyl peroxide” (Dow Pharmaceutical Sciences Inc., priority 2009, dated 2017)

Assay: surface tension by Du Noüy ring method, Krüss K20 EasyDyne tensiometer
Format: physicochemical
Details: for Surface tension: room temperature
Protocol: As used herein, the term “surface tension” refers to the force required to increase the unit area of a surface of a liquid or of an interface between two liquids or between a liquid and a gas, generally stated in units of dynes/cm. Surface tensions described herein are measured by the Du Noüy ring method utilizing an EasyDyne tensiometer model K20 marketed by Krüss USA, Matthews, N.C.
Surface tension of a fluid containing water was determined prior to and after mixing with various concentrations of various water soluble organic solvents in water. […] The study was performed at room temperature utilizing a Kruss Surface Tensiometer, Model K20 EasyDyne (Kruss USA, Matthews, N.C.) and the results are shown in Table 4. Values for surface tension are in dynes/cm.

| SMILES | Surface tension (1.0 % w/w solvent in water) | Surface tension (2.5 % w/w solvent in water) | Surface tension (5 % w/w solvent in water) | Surface tension (7.5 % w/w solvent in water) | Surface tension (10 % w/w solvent in water) | Surface tension (12.5 % w/w solvent in water) | Surface tension (15.0 % w/w solvent in water) | Surface tension (17.5 % w/w solvent in water) | Surface tension (20 % w/w solvent in water) | Surface tension (22.5 % w/w solvent in water) | Surface tension (25 % w/w solvent in water) | Surface tension (100 % w/w solvent) | Surface tension (50 % w/w solvent in water) | Surface tension (75 % w/w solvent in water) | suitability for the present method (by itself, at concentrations of 75% or less) | Surface tension (30 % w/w solvent in water) | concentration suitable for the invention (surface tension less than 64 dynes/cm) (solvent in water, from the data of Table 4) |
| --- | --- | --- | --- | --- | --- | --- | --- | --- | --- | --- | --- | --- | --- | --- | --- | --- | --- |
| OCCCO [1,3-Propanediol, 1,3-propanediol] | 69.8 dynes/cm | 68.1 dynes/cm | 64.6 dynes/cm | 64.4 dynes/cm | 61.2 dynes/cm | 61.1 dynes/cm | 61.0 dynes/cm | 58.9 dynes/cm | 60.4 dynes/cm | 58.2 dynes/cm | 58.3 dynes/cm |  |  |  |  |  |  |
| CO[C@H]1CO[C@H]2[C@@H]1OC[C@H]2OC [Dimethyl Isosorbide, dimethyl isosorbide] | 66.0 dynes/cm | 61.7 dynes/cm | 52.8 dynes/cm | 52.1 dynes/cm | 47.9 dynes/cm | 46.4 dynes/cm | 43.5 dynes/cm | 41.9 dynes/cm | 38.6 dynes/cm | 40.5 dynes/cm | 41.7 dynes/cm | 39.3 dynes/cm |  |  |  |  |  |
| CCO [Ethanol (200 proof), ethanol] | 67.4 dynes/cm | 62.0 dynes/cm | 55.9 dynes/cm | 51.4 dynes/cm | 47.8 dynes/cm | 44.6 dynes/cm | 42.2 dynes/cm | 40.2 dynes/cm | 38.0 dynes/cm | 36.6 dynes/cm | 34.9 dynes/cm | 22.3 dynes/cm |  |  |  |  |  |
| CCOCCOCCO [Ethoxy Diglycol NF, ethoxydiglycol] | 66.2 dynes/cm | 62.5 dynes/cm | 56.8 dynes/cm | 55.3 dynes/cm | 53.1 dynes/cm | 50.4 dynes/cm | 49.7 dynes/cm | 47.6 dynes/cm | 43.2 dynes/cm | 43.1 dynes/cm | 43.8 dynes/cm | 32.0 dynes/cm |  |  |  |  |  |
| OCC(O)CO [Glycerin USP, glycerin] |  |  |  |  |  |  |  |  |  |  | 69.8 dynes/cm | 62.0 dynes/cm | 68.9 dynes/cm | 66.4 dynes/cm | not suitable |  |  |
| CC(C)O [Isopropyl Alcohol, isopropyl alcohol] | 62.1 dynes/cm |  | 47.3 dynes/cm | 42.0 dynes/cm | 38.6 dynes/cm | 35.7 dynes/cm | 33.1 dynes/cm | 31.1 dynes/cm | 29.5 dynes/cm | 28.1 dynes/cm | 27.3 dynes/cm | 21.1 dynes/cm |  |  |  |  |  |
| CC1COC(=O)O1 (stereo not shown) [Propylene Carbonate, propylene carbonate] | 68.5 dynes/cm | 63.8 dynes/cm | 56.8 dynes/cm | 49.6 dynes/cm | 45.9 dynes/cm | 46.5 dynes/cm | 44.1 dynes/cm | 43.5 dynes/cm |  |  |  |  |  |  |  |  |  |
| CC(O)CO (stereo not shown) [Propylene Glycol USP, propylene glycol] | 70.8 dynes/cm | 68.7 dynes/cm | 65.9 dynes/cm | 63.6 dynes/cm | 61.7 dynes/cm | 59.7 dynes/cm | 58.3 dynes/cm | 56.5 dynes/cm | 55.2 dynes/cm | 54.1 dynes/cm | 52.8 dynes/cm | 36.1 dynes/cm |  |  |  | 50.6 dynes/cm | ≥ 7.5% |
